The text below walks through data of publication PMC10609143, “Inhibitory Mechanisms of Lekethromycin in Dog Liver Cytochrome P450 Enzymes Based on UPLC-MS/MS Cocktail Method” (Molecules, 2023).

Where two headings read alike, the source gives them in different places.

As a reminder, the Km is the substrate concentration at which the rate is half of its maximum. For orientation: Vmax means the rate approached at saturating substrate.

Series [1] has as its system CYP2A6. Also noted: method as in PMID 11307970. To be noted: dog liver microsomes, literature; cited from earlier work. Background: Liver microsomes are a subcellular fraction often used to study metabolism.
Series [2] relates to CYP2A6. In words: Enzyme kinetic study of probe substrate in dog liver microsomes. Type of series: in vitro ADME.
The next series relates to CYP2D6. To be noted: in vitro drug metabolism studies; cited from earlier work.
The next series deals with CYP1A2. Also noted: method as in PMID 12433797. To be noted: in vitro drug metabolism studies; cited from earlier work.
Series [3] relates to CYP3A4. Conditions: mini-pig; cited from earlier work.
Series [4] has as its system CYP3A4. To be noted: dog liver microsomes, literature; cited from earlier work.
In series [5] the test system is CYP3A4. To be noted: rat; cited from earlier work.
Series [6] can be described thus: Enzyme kinetic study of probe substrate in dog liver microsomes. Type of series: in vitro ADME. Conditions: pH 7.4, probe testosterone (6β-hydroxylation), 15 min, 0.2 mg/mL, n = 3, read-out: Km (Michaelis–Menten constant). As for the experimental part: (§1) The CYP450 enzymatic activities were characterized by their probe substrate reactions. Incubation mixtures were prepared in a total volume of 200 μL, which consisted of PBS (pH = 7.4), NADPH, probe substrates, and various concentrations of tested compounds. NADPH was added to initiate the reaction after a 5 min preincubation period at 37 °C in a thermos shaker. Of note, the volume of the final organic solvent in the incubation system should be below <1% (v/v). All experiments were performed in triplicate.
(§2) The Vmax and Km were calculated using GraphPad Prism v.8.0.2 (GraphPad software Inc., San Diego, CA, USA) via the Michaelis–Menten kinetic model. In addition, incubation times of 0–60 min were examined for mixed probe substrates. Various DLM protein concentrations (0.05–1 mg/mL) in the incubation mixture were carried out.
(§3) Then, 400 μL of cool ACN containing the 20 μL internal standard was added to terminate the reaction. Samples were vortexed for 2 min and centrifuged at 14,000 rpm for 10 min (4 °C). Next, the supernatant was steamed under nitrogen (40 °C) until dry. Then, it was dissolved with 200 µL of ACN: H2O = 80:20 (v/v). Finally, after filtering with a 0.22 μm membrane, an aliquot of 5 µL was injected into the UPLC-MS/MS for analysis.

For series [7], the system named is CYP3A4. Described as above. To be noted: testosterone 6β-hydroxylation, n = 3. Type of series: in vitro ADME. As for the experimental part: as §1, §2, §3
Substrate in series [8]: CC(NC(C)(C)C)C(=O)c1cccc(Cl)c1
Described as above. The class given is in vitro ADME. Conditions: other: bupropion hydroxylation, 15 min, 0.2 mg/mL, n = 3, pH 7.4.

Substrate in series [9]: COc1ccc2c(c1)[C@]13CCCC[C@@H]1[C@H](C2)N(C)CC3
Nature of the series: cells, lysate or membranes named. Conditions: other: dextromethorphan O-demethylation, dog liver microsomes, 15 min, 0.2 mg/mL, n = 3; pH 7.4.

Substrate in series [10]: CCOc1ccc(NC(C)=O)cc1
In words: cells, lysate or membranes named. To be noted: other: phenacetin O-deethylation, dog liver microsomes, 15 min, 0.2 mg/mL, n = 3; pH 7.4.

As for `O=c1ccc2ccccc2o1` [CAN, coumarin], in the series with CYP2A6 [1], the Michaelis-Menten constant (Km) is 2 to 4.3 µM and the Vmax is reported as 1488–1656 pmol/min/mg/microsomal protein. In addition, in the series with CYP2A6 [2] (coumarin hydroxylation, n = 3), the “Vmax (maximum rate of an enzyme-catalyzed reaction)” value is 0.034 nmol/min/mg protein. The Km at 15 min in the series with CYP2A6 [2] (pH 7.4, probe coumarin (hydroxylation), 15 min, 0.2 mg/mL, n = 3, read-out: Km (Michaelis–Menten constant)) is 0.41 µM.
For the molecule `COc1ccc2c(c1)[C@]13CCCC[C@@H]1[C@H](C2)N(C)CC3` [DEX, dextromethorphan], the Michaelis-Menten constant (Km) in the series on CYP2D6 is 2 to 10 µM.
Regarding `CCOc1ccc(NC(C)=O)cc1` [PH, phenacetin], in the series with CYP1A2, the Michaelis-Menten constant (Km) was 10 to 50 µM.
On to `C[C@]12CC[C@H]3[C@@H](CCC4=CC(=O)CC[C@@]43C)[C@@H]1CC[C@@H]2O` [TS, testosterone], for which the values for the Km in the series on CYP3A4 [3], in the series on CYP3A4 [4] and in the series with CYP3A4 [5] were 79 µM, 192 µM and 84 µM, respectively. The Vmax in the series with CYP3A4 [4] is recorded as 68–180 pmol/min/mg/microsomal protein. In [6], the Km at 15 min amounted to 85.2 µM. The “Vmax (maximum rate of an enzyme-catalyzed reaction)” value with CYP3A4 [7] is listed as 1.49 nmol/min/mg protein.

B1: CYP2B6 (Canis lupus familiaris) (protein)
chain: MELSVLLLLALLTGLLLLMARGHPKAYGHLPPGPRPLPILGNFLQMDRKGLLKSFLRLQEKYGDVFTVYLGPRRTVMLCGIDAIREALVDNAEAFSGRGKIAVVEPVFQGYGVVFANGERWKTLRRFSLATMRDFGMGKRSVEERIQEEAQCLVEELRKTEGVLQDPTFFFHSMTANIICSIVFGKRFGYKDPEFLRLMNLFYVSFALISSFSSQMFELFHSFLKYFPGTHRQVYNNLQEIKAFIARMVEKHRETLDPSAPRDFIDAYLIRMDKEKAEPSSEFHHRNLIDTALSLFFAGTETTSTTLRYGFLLMLKYPHIAERIYKEIDQVIGPHRLPSLDDRAKMPYTDAVIHEIQRFGDLLPIGVPHMVTKDICFRGYIIPKGTEVFPILHSALNDPHYFEKPDVFNPDHFLDANGALKKNEAFIPFSIGKRICLGEGIARMELFLFFTTILQNFSVASPMAPEDIDLTPQEIGVGKLPPVYQISFLSRGGC
notes: from tissue; host or cells: dog liver microsomes (DLM)
Regarding B1, in series [8], the Km was determined as 9.15 µM and the Vmax came out at 0.00143 µmol/min/mg.

B2: CYP2D6 (Canis lupus familiaris) (protein)
chain: MGLLTGDTLGPLAVAVAIFLLLVDLMHRRRRWATRYPPGPTPVPMVGNLLQMDFQEPICYFSQLQGRFGNVFSLELAWTPVVVLNGLEAVREALVHRSEDTADRPPMPIYDHLGLGPESQGLFLARYGRAWREQRRFSLSTLRNFGLGRKSLEQWVTEEASCLCAAFAEQAGRPFGPGALLNKAVSNVISSLTYGRRFEYDDPRLLQLLELTQQALKQDSGFLREALNSIPVLLHIPGLASKVFSAQKAIITLTNEMIQEHRKTRDPTQPPRHLIDAFVDEIEKAKGNPKTSFNEENLCMVTSDLFIAGMVSTSITLTWALLLMILHPDVQRRVQQEIDEVIGREQLPEMGDQTRMPFTVAVIHEVQRFGDIVPLGVPHMTSRDTEVQGFLIPKGTTLITNLSSVLKDEKVWKKPFRFYPEHFLDAQGHFVKHEAFMPFSAGRRVCLGEPLARMELFLFFTCLLQRFSFSVPAGQPRPSDHGVFTFLKVPAPFQLCVEPR
For B2, in [9], the Km came out at 6.33 µM and the Vmax was determined as 0.00616 µmol/min/mg.

B3: CYP1A2 (Canis lupus familiaris) (protein)
chain: MALSQMATGLLLASTIFCLILWVVKAWQPRLPKGLKSPPGPWGWPLLGNVLTLGKSPHLALSRLSQRYGDVLQIRIGSTPVLVLSGLDTIRQALVRQGDDFKGRPDLYSLSLITDSQSMSFSPDSGPVWAAGRRLAQNALNTFSIASDPASSCSCYLEEHVSKEAEALLSRLQEQMAEVGRFDPYNQVLLSVANVIGAMCFGHHFSQRSEEMLPLLMSSSDFVETVSSGNPLDFFPILQYMPNSALQRFKNFNQTFVQSLQKIVQEHYQDFDERSVQDITGALLKHNEKSSRASDGHIPQEKIVNLINDIFGAGFDTVTTAISWSLMYLVANPEIQRQIQKELDTVIGRARQPRLSDRPQLPLMEAFILEIFRHTSFVPFTIPHSTTKDTTLKGFYIPKECCVFINQWQVNHDQQVWGDPFAFRPERFLTADGTTINKTLSEKVMLFGMGKRRCIGEVLAKWEIFLFLAILLQRLEFSVPAGVKVDLTPIYGLTMKHTRCEHVQARPRFSIK
For B3, in [10], the Km worked out at 5.39 µM and the Vmax was found to be 0.00022 µmol/min/mg.
